Results published in patent US5043450A, “8-alkoxyquinolonecarboxylic acid and salts thereof” (priority 1986, dated 1991).
In brackets after ≈: the same amount, converted by molar mass. Where two headings read alike, the source gives them in different places.

Assays:
Assay type in all cases: cell-based
[1] = tested on: Yersinia enterocolitica IID 981; test: Antibacterial spectra, MIC
B. distasonis 8503 = test: Antibacterial spectra, MIC; settings: Parabacteroides distasonis
P. maltophilia GIFU 2491 = test: Antibacterial spectra, MIC; settings: Stenotrophomonas maltophilia, GIFU2491
[2] = tested on: Peptostreptococcus anaerobius KYA 27337; test: Antibacterial spectra, MIC; settings: KYA27337
[3] = tested on: Pseudomonas aeruginosa V-1; test: Antibacterial spectra, MIC
[4] = tested on: S. aureus IID 670 (Terajima); test: Antibacterial spectra, MIC; settings: Staphylococcus aureus, IID670
[5] = tested on: Escherichia coli NIHJ JC-2; test: Antibacterial spectra, MIC
Pst. micros UPI 5464-1 = test: Antibacterial spectra, MIC; settings: Parvimonas micra, UPI54641
[6] = tested on: Eubacterium lentum GAI 5242; test: Antibacterial spectra, MIC; settings: Eggerthella lenta, GAI5242
[7] = tested on: Salmonella enteritidis IID 604; test: Antibacterial spectra, MIC; settings: Salmonella enterica
F. necrophorum S-45 = test: Antibacterial spectra, MIC; settings: Fusobacterium necrophorum, S45
[8] = tested on: Alcaligenes faecalis 0114002; test: Antibacterial spectra, MIC
B. fragilis 0558 = test: Antibacterial spectra, MIC; settings: Bacteroides fragilis
K. pneumoniae 1-220S = test: Antibacterial spectra, MIC; settings: Klebsiella pneumoniae, 1220S
F. varium KYA 8501 = test: Antibacterial spectra, MIC; settings: Fusobacterium varium, KYA8501
P. aeruginosa IID 1210 = test: Antibacterial spectra, MIC; settings: Pseudomonas aeruginosa, IID1210
[9] = tested on: Veillonella parvula KYA 10790; test: Antibacterial spectra, MIC
[10] = tested on: Enterobacter cloacae IID 977; test: Antibacterial spectra, MIC
B. fragilis 25285 = test: Antibacterial spectra, MIC; settings: Bacteroides fragilis
P. cepacia GIFU 518 = test: Antibacterial spectra, MIC; settings: Burkholderia cepacia, GIFU518
C. perfringens KYA 13123 = test: microbe, parasite or virus in culture; settings: Clostridium perfringens, KYA13123
[11] = tested on: Propionibacterium acens 11828; test: Antibacterial spectra, MIC
[12] = tested on: Clostridium difficile I-E; test: Antibacterial spectra, MIC; settings: Clostridioides difficile
[13] = tested on: Bacteroides fragilis GM 7000; test: Antibacterial spectra, MIC
[14] = tested on: Peptococcus magnus KY 017; test: Antibacterial spectra, MIC; settings: Finegoldia magna, KY017
P. aeruginosa IFO 12689 = test: Antibacterial spectra, MIC; settings: Pseudomonas aeruginosa, IFO12689
[15] = tested on: Serratia marcescens IID 618; test: Antibacterial spectra, MIC
Shigella sonnei IID 969 = test: Antibacterial spectra, MIC; settings: IID969, 10^6 cells/ml, Gram -
Experimental: (§1) The antibacterial test was carried out according to the method designated by Japan Society of Chemotherapy.

E. coli ML 4707 = test: Antibacterial spectra, MIC; settings: Escherichia coli, ML4707; 10^6 cells/ml; Gram -
Experimental: as §1

[16] = tested on: Proteus vulgaris IFO 3167; test: Antibacterial spectra, MIC; settings: IFO3167, 10^6 cells/ml, Gram -
Experimental: as §1

[17] = tested on: Acinetobacter anitratus IID 876; test: Antibacterial spectra, MIC; settings: Acinetobacter calcoaceticus, IID876
[18] = tested on: Klebsiella pneumoniae KY(GN)6445; test: Antibacterial spectra, MIC
B. vulgatus KYA 29327 = test: Antibacterial spectra, MIC; settings: Phocaeicola vulgatus, KYA29327
S. aureus Smith = test: Antibacterial spectra, MIC; settings: Staphylococcus aureus
[19] = tested on: Fusobacterium mortiferum 4249; test: Antibacterial spectra, MIC
E. coli ATCC 10536 = test: Antibacterial spectra, MIC; settings: Escherichia coli, ATCC10536
P. mirabilis IID 994 = test: Antibacterial spectra, MIC; settings: Proteus mirabilis, IID994
[20] = tested on: Morganella morganii IID 602; test: Antibacterial spectra, MIC
S. epidermidis IID 866 = test: Antibacterial spectra, MIC; settings: Staphylococcus epidermidis, IID866
[21] = tested on: Citrobacter freundii IID 976; test: Antibacterial spectra, MIC
[22] = tested on: Staphylococcus aureus 209 P; test: Antibacterial spectra, MIC
Bacilus subtilis PCI 219 = test: Antibacterial spectra, MIC; settings: Bacillus subtilis, PCI219
C. ramosum = test: Antibacterial spectra, MIC; settings: Thomasclavelia ramosa
[23] = tested on: B. thetaiotaomicron (0661); test: Antibacterial spectra, MIC; settings: Bacteroides thetaiotaomicron
[24] = 10^6 cells/ml, Gram -, read-out: MIC
[25] = 10^6 cells/ml, Gram +, read-out: MIC

SMILES: COc1c(N2CCNCC2)c(F)cc2c(=O)c(C(=O)O)cn(C3CC3)c12 [Exp. 1]
- MIC ([1]; IID981, 10^6 cells/ml, Gram -, read-out: MIC): 0.05 µg/mL (≈ 0.138 µM)
- MIC (B. distasonis 8503; [24]): 1.56 µg/mL (≈ 4.32 µM)
- MIC (P. maltophilia GIFU 2491): 0.39 µg/mL (≈ 1.08 µM)
- MIC [2]: 0.39 µg/mL (≈ 1.08 µM)
- MIC ([3]; V1, 10^6 cells/ml, Gram -, read-out: MIC): 0.1 µg/mL (≈ 0.277 µM)
- MIC [4, 25]: 0.1 µg/mL (≈ 0.277 µM)
- MIC ([5]; NIHJJC2, 10^6 cells/ml, Gram -, read-out: MIC): ≤ 0.0063 µg/mL
- MIC (Pst. micros UPI 5464-1; [25]): 0.2 µg/mL (≈ 0.553 µM)
- MIC [6, 25]: 0.2 µg/mL (≈ 0.553 µM)
- MIC [7, 24]: 0.05 µg/mL (≈ 0.138 µM)
- MIC (F. necrophorum S-45): 0.39 µg/mL (≈ 1.08 µM)
- MIC [8, 24]: 0.2 µg/mL (≈ 0.553 µM)
- MIC (B. fragilis 0558): 0.39 µg/mL (≈ 1.08 µM)
- MIC (K. pneumoniae 1-220S; [24]): 0.05 µg/mL (≈ 0.138 µM)
- MIC (F. varium KYA 8501): 3.13 µg/mL (≈ 8.66 µM)
- MIC (P. aeruginosa IID 1210): 0.39 µg/mL (≈ 1.08 µM)
- MIC ([9]; KYA10790, 10^6 cells/ml, Gram -, read-out: MIC): 0.2 µg/mL (≈ 0.553 µM)
- MIC ([10]; IID977, 10^6 cells/ml, Gram -, read-out: MIC): 0.05 µg/mL (≈ 0.138 µM)
- MIC (B. fragilis 25285): 0.39 µg/mL (≈ 1.08 µM)
- MIC (P. cepacia GIFU 518; [24]): 0.78 µg/mL (≈ 2.16 µM)
- MIC (C. perfringens KYA 13123): 0.39 µg/mL (≈ 1.08 µM)
- MIC [11]: 3.13 µg/mL (≈ 8.66 µM)
- MIC [12]: 3.13 µg/mL (≈ 8.66 µM)
- MIC ([13]; GM7000, 10^6 cells/ml, Gram -, read-out: MIC): 0.78 µg/mL (≈ 2.16 µM)
- MIC [14, 25]: 0.2 µg/mL (≈ 0.553 µM)
- MIC (P. aeruginosa IFO 12689; [24]): 0.78 µg/mL (≈ 2.16 µM)
- MIC ([15]; IID618, 10^6 cells/ml, Gram -, read-out: MIC): 0.05 µg/mL (≈ 0.138 µM)
- MIC (Shigella sonnei IID 969): 0.0125 µg/mL (≈ 0.0346 µM)
- MIC (E. coli ML 4707): 0.025 µg/mL (≈ 0.0692 µM)
- MIC [16]: 0.0125 µg/mL (≈ 0.0346 µM)
- MIC [17, 24]: 0.1 µg/mL (≈ 0.277 µM)
- MIC [18, 24]: 0.025 µg/mL (≈ 0.0692 µM)
- MIC (B. vulgatus KYA 29327; [24]): 0.78 µg/mL (≈ 2.16 µM)
- MIC (S. aureus Smith; [25]): 0.1 µg/mL (≈ 0.277 µM)
- MIC [19]: 0.39 µg/mL (≈ 1.08 µM)
- MIC (E. coli ATCC 10536; [24]): 0.025 µg/mL (≈ 0.0692 µM)
- MIC (P. mirabilis IID 994; [24]): 0.025 µg/mL (≈ 0.0692 µM)
- MIC ([20]; IID602, 10^6 cells/ml, Gram -, read-out: MIC): 0.05 µg/mL (≈ 0.138 µM)
- MIC (S. epidermidis IID 866; [25]): 0.1 µg/mL (≈ 0.277 µM)
- MIC ([21]; IID976, 10^6 cells/ml, Gram -, read-out: MIC): 0.025 µg/mL (≈ 0.0692 µM)
- MIC [22, 25]: 0.1 µg/mL (≈ 0.277 µM)
- MIC (Bacilus subtilis PCI 219; [25]): 0.025 µg/mL (≈ 0.0692 µM)
- MIC (C. ramosum): 3.13 µg/mL (≈ 8.66 µM)
- MIC [23, 24]: 1.56 µg/mL (≈ 4.32 µM)

SMILES: COc1c(N2CCC(CN)C2)c(F)cc2c(=O)c(C(=O)O)cn(C3CC3)c12 (stereo not shown) [Exp. 7, 7-(3-aminomethyl-1-pyrrolidinyl)-1-cyclopropyl-6-fluoro-1,4-dihydro-8-methoxy-4-oxo-3-quinolinecarboxylic acid]
- MIC ([1]; IID981): 0.1 µg/mL (≈ 0.266 µM)
- MIC (B. distasonis 8503): 0.78 µg/mL (≈ 2.08 µM)
- MIC (P. maltophilia GIFU 2491): 0.2 µg/mL (≈ 0.533 µM)
- MIC [2]: 0.05 µg/mL (≈ 0.133 µM)
- MIC ([3]; V1): 0.2 µg/mL (≈ 0.533 µM)
- MIC [4]: 0.025 µg/mL (≈ 0.0666 µM)
- MIC ([5]; NIHJJC2): 0.025 µg/mL (≈ 0.0666 µM)
- MIC (Pst. micros UPI 5464-1): 0.1 µg/mL (≈ 0.266 µM)
- MIC [6]: 0.39 µg/mL (≈ 1.04 µM)
- MIC [7]: 0.05 µg/mL (≈ 0.133 µM)
- MIC (F. necrophorum S-45): 0.2 µg/mL (≈ 0.533 µM)
- MIC [8]: 0.39 µg/mL (≈ 1.04 µM)
- MIC (B. fragilis 0558): 0.2 µg/mL (≈ 0.533 µM)
- MIC (K. pneumoniae 1-220S): 0.1 µg/mL (≈ 0.266 µM)
- MIC (F. varium KYA 8501): 0.78 µg/mL (≈ 2.08 µM)
- MIC (P. aeruginosa IID 1210): 0.78 µg/mL (≈ 2.08 µM)
- MIC ([9]; KYA10790): 0.1 µg/mL (≈ 0.266 µM)
- MIC ([10]; IID977): 0.1 µg/mL (≈ 0.266 µM)
- MIC (B. fragilis 25285): 0.2 µg/mL (≈ 0.533 µM)
- MIC (P. cepacia GIFU 518): 0.78 µg/mL (≈ 2.08 µM)
- MIC (C. perfringens KYA 13123): 0.2 µg/mL (≈ 0.533 µM)
- MIC [11]: 0.39 µg/mL (≈ 1.04 µM)
- MIC [12]: 0.39 µg/mL (≈ 1.04 µM)
- MIC ([13]; GM7000): 0.39 µg/mL (≈ 1.04 µM)
- MIC [14]: 0.05 µg/mL (≈ 0.133 µM)
- MIC (P. aeruginosa IFO 12689): 0.78 µg/mL (≈ 2.08 µM)
- MIC ([15]; IID618): 0.2 µg/mL (≈ 0.533 µM)
- MIC (Shigella sonnei IID 969): 0.05 µg/mL (≈ 0.133 µM)
- MIC (E. coli ML 4707): 0.05 µg/mL (≈ 0.133 µM)
- MIC [16]: 0.05 µg/mL (≈ 0.133 µM)
- MIC [17]: 0.05 µg/mL (≈ 0.133 µM)
- MIC [18]: 0.05 µg/mL (≈ 0.133 µM)
- MIC (B. vulgatus KYA 29327): 0.39 µg/mL (≈ 1.04 µM)
- MIC (S. aureus Smith): 0.05 µg/mL (≈ 0.133 µM)
- MIC [19]: 0.2 µg/mL (≈ 0.533 µM)
- MIC (E. coli ATCC 10536): 0.05 µg/mL (≈ 0.133 µM)
- MIC (P. mirabilis IID 994): 0.05 µg/mL (≈ 0.133 µM)
- MIC ([20]; IID602): 0.2 µg/mL (≈ 0.533 µM)
- MIC (S. epidermidis IID 866): 0.05 µg/mL (≈ 0.133 µM)
- MIC ([21]; IID976): 0.05 µg/mL (≈ 0.133 µM)
- MIC [22]: 0.025 µg/mL (≈ 0.0666 µM)
- MIC (Bacilus subtilis PCI 219): 0.025 µg/mL (≈ 0.0666 µM)
- MIC (C. ramosum): 0.78 µg/mL (≈ 2.08 µM)
- MIC [23]: 0.39 µg/mL (≈ 1.04 µM)
